According to PubChem BioAssay (NCI):
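Each compound was tested at five concentrations against cells in 96-well plates for 48 hours. Abbreviation: GI50, concentration required for 50% inhibition of growth. TGI denotes the concentration required for complete inhibition of growth.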

How the values were obtained:
Assay in all cases: growth of human tumour cells (NCI), 48 h
786-0 renal = system: 786-0 renal
A498 renal = system: A498 renal
A549 NSCLC = system: A549 NSCLC
ACHN renal = system: ACHN renal
BT-549 breast = system: BT-549 breast
CAKI-1 renal = system: CAKI-1 renal
CCRF-CEM leukemia = system: CCRF-CEM leukemia
COLO 205 colon = system: COLO 205 colon
DU-145 prostate = system: DU-145 prostate
EKVX NSCLC = system: EKVX NSCLC
HCC-2998 colon = system: HCC-2998 colon
HCT-116 colon = system: HCT-116 colon
HCT-15 colon = system: HCT-15 colon
HL-60(TB) leukemia = system: HL-60(TB) leukemia
HOP-62 NSCLC = system: HOP-62 NSCLC
HOP-92 NSCLC = system: HOP-92 NSCLC
HS 578T breast = system: HS 578T breast
HT29 colon = system: HT29 colon
IGROV1 ovarian = system: IGROV1 ovarian
K-562 leukemia = system: K-562 leukemia
KM12 colon = system: KM12 colon
LOX IMVI melanoma = system: LOX IMVI melanoma
M14 melanoma = system: M14 melanoma
MALME-3M melanoma = system: MALME-3M melanoma
MCF7 breast = system: MCF7 breast
MDA-MB-231 breast = system: MDA-MB-231 breast
MDA-MB-435 = system: MDA-MB-435
MOLT-4 leukemia = system: MOLT-4 leukemia

CCN1C(=O)N(CC)C2C1NN=c1s/c(=C\c3ccccc3)c(=O)n12 (stereo unspecified)
GI50 (786-0 renal): 874 nM | TGI (786-0 renal): > 100 µM | GI50 (A498 renal): 23.8 nM | TGI (A498 renal): 147 nM | GI50 (A549 NSCLC): 305 nM | TGI (A549 NSCLC): > 100 µM | GI50 (ACHN renal): 199 nM | TGI (ACHN renal): > 100 µM | GI50 (BT-549 breast): 199 nM | TGI (BT-549 breast): > 100 µM | GI50 (CAKI-1 renal): 71.7 nM | TGI (CAKI-1 renal): > 100 µM | GI50 (CCRF-CEM leukemia): 232 nM | TGI (CCRF-CEM leukemia): > 100 µM | GI50 (COLO 205 colon): 193 nM | TGI (COLO 205 colon): 657 nM | GI50 (DU-145 prostate): 308 nM | TGI (DU-145 prostate): > 100 µM | GI50 (EKVX NSCLC): 388 nM | TGI (EKVX NSCLC): > 100 µM | GI50 (HCC-2998 colon): 282 nM | TGI (HCC-2998 colon): > 100 µM | GI50 (HCT-116 colon): 78.6 nM | TGI (HCT-116 colon): > 100 µM | GI50 (HCT-15 colon): 69.2 nM | TGI (HCT-15 colon): > 100 µM | GI50 (HL-60(TB) leukemia): 198 nM | TGI (HL-60(TB) leukemia): 640 nM | GI50 (HOP-62 NSCLC): 377 nM | TGI (HOP-62 NSCLC): > 100 µM | GI50 (HOP-92 NSCLC): 29.7 µM | TGI (HOP-92 NSCLC): > 100 µM | GI50 (HS 578T breast): 146 nM | TGI (HS 578T breast): > 100 µM | GI50 (HT29 colon): 98.9 nM | TGI (HT29 colon): > 42.2 µM | GI50 (IGROV1 ovarian): 298 nM | TGI (IGROV1 ovarian): > 100 µM | GI50 (K-562 leukemia): 50.5 nM | TGI (K-562 leukemia): > 100 µM | GI50 (KM12 colon): 70.5 nM | TGI (KM12 colon): > 100 µM | GI50 (LOX IMVI melanoma): 194 nM | TGI (LOX IMVI melanoma): > 100 µM | GI50 (M14 melanoma): 104 nM | TGI (M14 melanoma): > 100 µM | GI50 (MALME-3M melanoma): 1090 nM | TGI (MALME-3M melanoma): > 100 µM | GI50 (MCF7 breast): 46.3 nM | TGI (MCF7 breast): > 100 µM | GI50 (MDA-MB-231 breast): 416 nM | TGI (MDA-MB-231 breast): > 100 µM | GI50 (MDA-MB-435): 31.6 nM | TGI (MDA-MB-435): 109 nM | GI50 (MOLT-4 leukemia): 420 nM | TGI (MOLT-4 leukemia): > 100 µM
